Laboratory results: patent US11135143B2, “Oral care compositions comprising tin ions” (The Procter & Gamble Company, priority 2020, dated 2021)

Experiments:
[1] = tested on: Human gingival epithelial (HGE) cell; assay: Barrier protection analysis by real time cell analyzer (RTCA), impedance / Cell Index; type: cell-based; settings: HGE cells
Description: Cell Culture Human gingival epithelial (HGE) cell was maintained in a 37° C. incubator with 5% CO2 saturation. Dulbecco's modified Eagle's medium (DMEM, Gibco) containing 10% fetal calf serum, 1% penicillin-streptomycin was used as the complete culture medium, which was changed every 2-3 days. Barrier Protection Analysis by Real Time Cell Analyzer (RTCA) The real time cell analyzer (RTCA) xCELLigence RTCA DP (ACEA Bioscience Inc., San Diego, Calif.) equipment, based on impedance measurement, was used to monitor the barrier protection of polyols. 50 μl complete culture medium was added to E-plates to obtain background readings, followed by the addition of 100 μl of the cell suspension. The E-plates containing 28000 cell/well were incubated at 37° C., 5% CO2 for 22-24 h until cells were confluent. The culture medium was changed to DMEM or DMEM with 1% of polyols, non reducing sugars or combinations and incubated at 37° C., 5% CO2 for 2 h. The barrier disruptor (capsaicin to a final concentration of 75 μM in this case) was added to wells of E-plate. Impedance as reflected by the Cell Index (CI) was recorded continuously for 16-24 h. The CI curve was normalized at the time point just before adding polyols. The normalized CI at 3 h after adding of barrier disruptor was compared to blank control to generate the percentage of barrier function % comprimisation.

[2] = Solubility of tin ions (SnF2) in polyol solutions at various pH; type: physicochemical; settings: for Appearance of polyol solution with SnF2 (cloudy = formation of Sn(OH)2): pH 8-10, pH raised with NaOH; for Appearance of polyol solution with stannous fluoride: every point above pH of 4
Description: Solubility of Tin Ions at a pH of Greater than 7
A 30% (w/w) solution was prepared for each polyol or combination of polyols was prepared using the appropriate amount of the pure polyol and deionized water. Next, 46 g of the 30% (w/w) polyol solution was placed in a 250 mL glass beaker with a stirring bar on top of a magnetic stirring apparatus. 21 g of deionized water was added to the glass beaker and the magnetic stirring apparatus was started to commence stirring of the solution. A pH electrode was connected to a pH meter (VWR Scientific, Model 9100, Radnor, Pa.) and the pH electrode (ThermoFisher Scientific, Orion 8165BNWP, Waltham, Mass.) was placed in the stirring polyol solution.
0.45 grams of a tin ion source, such as stannous fluoride, was added to the stirring polyol solution. The pH was recorded once the tin ion source was completely added. The pH of the solution was increased by dropwise addition of a 33% (w/w) solution of NaOH.
Solubility of Tin Ions at a pH of Less than 7
0.45 grams of a tin ion source, such as stannous fluoride, was added to the stirring polyol solution. The pH was recorded once the tin ion source was completely added. The pH of the solution was decreased by dropwise addition of a 33% (w/w) solution of HCl.
A solution that appeared cloudy indicated the formation of insoluble tin complexes. At a pH of greater than 7, a cloudy solution indicated the formation of Sn(OH)2. FIG. 1-6 illustrate TABLE 1 by showing the appearance of each solution described in TABLE 1.

[3] = DMEM with 1% polyol(s) for 2 h, then capsaicin 75 μM, normalized CI at 3 h after barrier disruptor compared to blank control (100%)
[4] = pH 2-4, 30% (w/w) polyol solution diluted with water, 0.45 g stannous fluoride, pH lowered with HCl

| Compound | Appearance of polyol solution with SnF2 (cloudy = formation of insoluble tin complexes) [2, 4] | Appearance of polyol solution with SnF2 (cloudy = formation of insoluble tin complexes) ([2]; pH 4-6) | Appearance of polyol solution with SnF2 (cloudy = formation of insoluble tin complexes) ([2]; pH 6-8) | Appearance of polyol solution with SnF2 (cloudy = formation of Sn(OH)2) [2] | Appearance of polyol solution with stannous fluoride [2] | Barrier Function [1, 3] [%] | Barrier Function ([1]; DMEM with 1% polyol(s) for 2 h, then capsaicin 75 μM, normalized CI at 3 h after barrier disruptor compared to blank control (100%), listed as glycerin) [%] | Barrier Function ([1]; DMEM with 1% polyol(s) for 2 h, then capsaicin 75 μM, normalized CI at 3 h after barrier disruptor compared to blank control (100%), listed as sorbitol) [%] | Barrier Function ([1]; barrier disruptor capsaicin 75 μM alone, no polyol, normalized CI at 3 h compared to blank control (100%)) [%] | Barrier Function ([1]; barrier disruptor capsaicin 75 μM alone, no polyol, normalized CI at 3 h compared to blank control (100%), listed as capsaicin) [%] |
| --- | --- | --- | --- | --- | --- | --- | --- | --- | --- | --- |
| OCC(O)CO [Glycerin, reference compound] |  |  |  |  |  | 44 | 44 |  |  |  |
| Isomalt | clear | cloudy | cloudy | cloudy | cloudy | 85 |  |  |  |  |
| COc1cc(CNC(=O)CCCC/C=C/C(C)C)ccc1O [Capsaicin, capsaicin, reference compound] |  |  |  |  |  |  |  |  | 28 | 28 |

Now from value to compound, other results behind:

| Appearance of polyol solution with SnF2 (cloudy = formation of insoluble tin complexes) [2, 4] | Appearance of polyol solution with SnF2 (cloudy = formation of insoluble tin complexes) ([2]; pH 4-6) | Appearance of polyol solution with SnF2 (cloudy = formation of insoluble tin complexes) ([2]; pH 6-8) | Appearance of polyol solution with SnF2 (cloudy = formation of Sn(OH)2) [2] | Appearance of polyol solution with stannous fluoride [2] | Compound | Barrier Function [1, 3] [%] | Barrier Function ([1]; DMEM with 1% polyol(s) for 2 h, then capsaicin 75 μM, normalized CI at 3 h after barrier disruptor compared to blank control (100%), listed as glycerin) [%] | Barrier Function ([1]; DMEM with 1% polyol(s) for 2 h, then capsaicin 75 μM, normalized CI at 3 h after barrier disruptor compared to blank control (100%), listed as sorbitol) [%] | Barrier Function ([1]; barrier disruptor capsaicin 75 μM alone, no polyol, normalized CI at 3 h compared to blank control (100%)) [%] | Barrier Function ([1]; barrier disruptor capsaicin 75 μM alone, no polyol, normalized CI at 3 h compared to blank control (100%), listed as capsaicin) [%] |
| --- | --- | --- | --- | --- | --- | --- | --- | --- | --- | --- |
| clear | cloudy | cloudy | clear |  | OC[C@@H](O)[C@@H](O)[C@H](O)[C@@H](O)CO [Sorbitol] | 46 |  | 46 |  |  |
| clear | cloudy | cloudy | cloudy | cloudy | OC[C@H]1O[C@H](O[C@H]2O[C@H](CO)[C@@H](O)[C@H](O)[C@H]2O)[C@H](O)[C@@H](O)[C@@H]1O [Trehalose] | 102 |  |  |  |  |
